Key:
5-HT2A receptor = 5-HT2A receptor (Homo sapiens, UniProt P28223); experiment: Calcium flux test for 5-HT2A receptor; type: cell-based; conditions: CHO cell strain stably expressing 5-HT2A receptor
[1] = Pharmacokinetic test in mice; type: in vivo; conditions: male, ICR, mouse, plasma, po, 5 mg/kg, oral intragastric, single dose 5 mg/kg
Procedure: Male ICR mice were administered orally intragastrically, the plasma concentrations of the compounds of the present invention were measured in the mice, the PK parameters were calculated, and the pharmacokinetic evaluation was performed on the compounds of the present invention.
• (1) Test samples: the compounds of the examples of the present invention, self-made. • (2) Test animals: ICR mice, SPF grade, male, Xuzhou Medical University. • (3) Main test instruments:
Drug preparation: according to the weight of the weighed drug, the preparation volume was calculated. 5% of DMSO was added firstly. After the drug was fully dissolved, 95% of 20% aqueous PB-cyclodextrin solution was then added, and the mixture was mixed well for later use.
Administration route: oral intragastric administration. Frequency and duration of administration: single administration.
ICR mice were stratified according to body weight and then randomly divided into groups of 9 mice each, and the mice were fasted overnight prior to the test. The mice were separately administered orally intragastrically. 50 μL of blood was collected from the fundus vein of the mouse at 0 h, 0.083 h, 0.25 h, 0.5 h, 1 h, 2 h, 4 h, 8 h, 12 h, and 24 h (3 time points for each mouse) to a sample tube containing heparin sodium as an anticoagulant, and the tube was placed in wet ice and centrifuged at 4000 r·min^−1 for 10 min. The plasma was separated, and cryopreserved in a refrigerator at −80° C. for testing.
The concentrations of plasma samples were measured by high performance liquid chromatography-tandem mass spectrometry (LC-MS/MS). The retention times of the compounds and internal standard, chromatogram acquisitions, and integrals of chromatograms were processed using the software Analyst (AB SCIEX), and the data statistics were processed using the software Watson LIMS (Thermo Fisher Scientific) or Analyst (AB SCIEX). The concentration of plasma was processed using a non-compartmental model of the pharmacokinetic software WinNonlin™ Version 6.3 (Pharsight, Mountain View, CA), and pharmacokinetic parameters were calculated by a linear log-trapezoidal method.

5-HT2A receptor, sequence (P28223 whole entry): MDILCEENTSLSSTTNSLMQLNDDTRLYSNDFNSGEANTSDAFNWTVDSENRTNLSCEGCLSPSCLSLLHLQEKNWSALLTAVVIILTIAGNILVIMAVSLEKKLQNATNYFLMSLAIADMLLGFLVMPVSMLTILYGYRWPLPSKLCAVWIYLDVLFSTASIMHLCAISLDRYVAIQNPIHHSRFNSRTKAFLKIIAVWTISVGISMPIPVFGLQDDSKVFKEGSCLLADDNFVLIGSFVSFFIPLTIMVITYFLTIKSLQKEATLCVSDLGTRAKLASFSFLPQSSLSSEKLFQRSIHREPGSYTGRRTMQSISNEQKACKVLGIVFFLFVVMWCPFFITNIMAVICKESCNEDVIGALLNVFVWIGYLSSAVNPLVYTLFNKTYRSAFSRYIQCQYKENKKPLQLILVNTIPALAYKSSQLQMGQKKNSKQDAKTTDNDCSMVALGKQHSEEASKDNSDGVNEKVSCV

In the case of `O=C1Nc2cc(OCCCCN3CCN(c4cccc(Cl)c4Cl)CC3)ccc2C2CC12` (centres unmarked) [Example 1, 5-(4-(4-(2,3-Dichlorophenyl)piperazin-1-yl)butoxy)-3,7b-dihydro-1H-cyclopropa[c]quinolin-2(1aH)-one], the IC50 (5-HT2A receptor; calcium flux, antagonism of serotonin) is reported as 731 nM, the “5-HT2A Max Inh %” value (5-HT2A receptor; positive control ketanserin 10^−7 M) is reported as 98.4% and the half-life [1] is reported as 10.8 h. The AUC(0-inf) ([1]; read-out: AUC(0-inf)) was 7160 ng·h/mL and the Cmax ([1]; read-out: Cmax) was 511 ng/mL.
